Measured values as given in US10077261B2, “Imidazolin-5-one derivative useful as FASN inhibitors for the treatment of cancer” (Janssen Pharmaceutica NV, priority 2012, dated 2018).

Biological target: T1, hFASN enzyme (full length) (Homo sapiens, UniProt P49327)
T1 construct: 10 μL hFASN enzyme (full length, 300 ng, purified in house); made in house
Test: Fatty Acid Synthase (FASN) inhibition scintillation proximity assay
Format: biochemical
Settings: for inhibition at 10 µM: read-out: Human FASN % inhibition @ 10 μM, 10 μM test compound; for IC50: read-out: Human FASN pIC50 (converted)
Procedure, shortened: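 Scintillation proximity format: in-house full-length enzyme, 300 ng per well, pH 7.5 phosphate/DTT buffer, ³H-acetyl-CoA and malonyl-CoA. Emission counted on LEADseeker at 610 nm at least 24 h after stopping.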

T1 sequence (P49327 whole entry): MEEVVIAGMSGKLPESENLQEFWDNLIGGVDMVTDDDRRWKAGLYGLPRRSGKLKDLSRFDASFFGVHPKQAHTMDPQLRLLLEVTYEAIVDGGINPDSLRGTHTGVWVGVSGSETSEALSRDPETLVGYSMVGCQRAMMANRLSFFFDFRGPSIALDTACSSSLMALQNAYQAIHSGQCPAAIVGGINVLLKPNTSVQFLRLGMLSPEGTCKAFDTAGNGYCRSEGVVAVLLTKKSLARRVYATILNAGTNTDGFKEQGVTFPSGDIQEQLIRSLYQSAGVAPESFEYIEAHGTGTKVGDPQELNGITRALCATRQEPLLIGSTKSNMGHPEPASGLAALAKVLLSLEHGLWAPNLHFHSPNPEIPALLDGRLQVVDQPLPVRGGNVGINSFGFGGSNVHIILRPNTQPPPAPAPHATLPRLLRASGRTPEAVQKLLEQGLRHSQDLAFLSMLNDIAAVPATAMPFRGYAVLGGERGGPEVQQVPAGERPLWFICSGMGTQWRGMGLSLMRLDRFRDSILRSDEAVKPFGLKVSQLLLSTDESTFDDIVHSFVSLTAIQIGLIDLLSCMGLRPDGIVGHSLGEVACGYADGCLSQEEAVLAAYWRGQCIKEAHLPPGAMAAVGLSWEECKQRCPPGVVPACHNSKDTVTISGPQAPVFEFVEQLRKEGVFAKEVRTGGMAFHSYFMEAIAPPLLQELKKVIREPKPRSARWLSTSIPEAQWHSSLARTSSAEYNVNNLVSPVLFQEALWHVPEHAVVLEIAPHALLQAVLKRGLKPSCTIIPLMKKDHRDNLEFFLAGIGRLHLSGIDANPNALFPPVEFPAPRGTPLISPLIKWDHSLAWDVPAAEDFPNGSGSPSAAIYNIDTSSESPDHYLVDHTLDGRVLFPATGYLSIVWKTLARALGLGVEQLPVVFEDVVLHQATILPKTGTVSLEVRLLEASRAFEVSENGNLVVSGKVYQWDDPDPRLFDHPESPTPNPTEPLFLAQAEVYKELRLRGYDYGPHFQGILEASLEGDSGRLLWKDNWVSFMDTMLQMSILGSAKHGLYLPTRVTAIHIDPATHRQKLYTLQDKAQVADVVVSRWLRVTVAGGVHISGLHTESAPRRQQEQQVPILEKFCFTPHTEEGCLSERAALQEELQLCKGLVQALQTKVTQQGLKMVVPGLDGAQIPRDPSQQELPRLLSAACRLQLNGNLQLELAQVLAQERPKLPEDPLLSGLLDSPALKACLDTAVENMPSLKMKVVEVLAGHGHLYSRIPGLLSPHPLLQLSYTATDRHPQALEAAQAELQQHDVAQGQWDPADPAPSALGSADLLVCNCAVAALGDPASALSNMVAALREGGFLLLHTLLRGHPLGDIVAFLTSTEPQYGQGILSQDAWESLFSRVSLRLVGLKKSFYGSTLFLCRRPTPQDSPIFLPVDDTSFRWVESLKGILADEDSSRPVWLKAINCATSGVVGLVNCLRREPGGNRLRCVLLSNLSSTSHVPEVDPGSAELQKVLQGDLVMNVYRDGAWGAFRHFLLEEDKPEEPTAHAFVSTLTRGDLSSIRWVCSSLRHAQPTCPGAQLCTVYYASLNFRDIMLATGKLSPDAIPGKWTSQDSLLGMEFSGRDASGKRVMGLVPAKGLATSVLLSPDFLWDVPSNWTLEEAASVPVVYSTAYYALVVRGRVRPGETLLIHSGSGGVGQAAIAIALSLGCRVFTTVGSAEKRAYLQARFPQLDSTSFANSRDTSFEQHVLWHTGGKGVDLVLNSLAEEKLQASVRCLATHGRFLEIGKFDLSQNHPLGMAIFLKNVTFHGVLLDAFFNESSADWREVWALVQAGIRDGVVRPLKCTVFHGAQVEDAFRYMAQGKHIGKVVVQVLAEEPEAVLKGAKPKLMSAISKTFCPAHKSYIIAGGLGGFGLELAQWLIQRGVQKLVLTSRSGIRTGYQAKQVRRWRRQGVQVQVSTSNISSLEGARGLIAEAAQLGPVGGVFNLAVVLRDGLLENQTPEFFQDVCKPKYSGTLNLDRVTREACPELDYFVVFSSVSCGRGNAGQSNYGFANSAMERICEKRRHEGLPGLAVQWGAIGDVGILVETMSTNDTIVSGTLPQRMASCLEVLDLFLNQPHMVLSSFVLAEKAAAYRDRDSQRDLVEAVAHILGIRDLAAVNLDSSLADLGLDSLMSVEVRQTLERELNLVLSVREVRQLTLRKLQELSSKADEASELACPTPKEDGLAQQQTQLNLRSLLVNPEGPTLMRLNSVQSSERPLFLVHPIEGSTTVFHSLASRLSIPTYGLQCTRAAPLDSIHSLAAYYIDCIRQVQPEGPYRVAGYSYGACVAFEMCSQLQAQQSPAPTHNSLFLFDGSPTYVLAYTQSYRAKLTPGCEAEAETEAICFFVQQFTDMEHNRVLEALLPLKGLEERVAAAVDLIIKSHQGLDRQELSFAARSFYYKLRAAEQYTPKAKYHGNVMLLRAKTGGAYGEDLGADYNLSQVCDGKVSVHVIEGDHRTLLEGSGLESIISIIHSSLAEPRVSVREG

Row | Structure (SMILES) | inhibition at 10 µM | IC50
1 | O=CNc1cc(-c2ccc(C3=NC4(CC4)C(=O)N3CC3CN(C(=O)C4CC4)C3)cc2)ccc1O [compound 54, N-[4′-(6-{[-(Cyclopropylcarbonyl)azetidin-3-yl]methyl}-7-oxo-4,6-diazaspiro[2.4]hept-4-en-5-yl)-4-hydroxybiphenyl-3-yl]formamide] | 64.7% | 4.68 µM
2 | O=C(C1CC1)N1CC[C@@H](CN2C(=O)C3(CCN(CCO)CC3)N=C2c2ccc(-c3ccc4occc4c3)cc2)C1 [compound 168, 2-[4-(1-Benzofuran-5-yl)phenyl]-3-{[(3R)-1-(cyclopropylcarbonyl)pyrrolidin-3-yl]methyl}-8-(2-hydroxyethyl)-1,3,8-triazaspiro[4.5]dec-1-en-4-one] | 108% | 0.145 µM
3 | O=C1N(C[C@@H]2CCN(S(=O)(=O)N3CCCC3)C2)C(c2ccc(-c3ccc4occc4c3)cc2)=NC12CCCC2 [compound 189, 2-[4-(1-Benzofuran-5-yl)phenyl]-3-{[(3S)-1-(pyrrolidin-1-ylsulfonyl)pyrrolidin-3-yl]methyl}-1,3-diazaspiro[4.4]non-1-en-4-one] | 16.7% | > 10 µM
4 | O=C(C1CC1)N1CC[C@@H](CN2C(=O)C3(CC3)N=C2c2ccc(-c3ccc4[nH]ncc4c3)s2)C1 [compound 424, 6-{[(3R)-1-(Cyclopropylcarbonyl)pyrrolidin-3-yl]methyl}-5-[5-(1H-indazol-5-yl)thiophen-2-yl]-4,6-diazaspiro[2.4]hept-4-en-7-one] | 68% | 3.98 µM
5 | O=C(C1CC1)N1CCC(CN2C(=O)C3(CC3)N=C2c2ccc(-c3ccc(O)cc3)cc2)CC1 [compound 55, 6-{[1-(Cyclopropylcarbonyl)piperidin-4-yl]methyl}-5-(4′-hydroxybiphenyl-4-yl)-4,6-diazaspiro[2.4]hept-4-en-7-one] | 32.7% | > 10 µM
6 | Cc1oc2ccc(-c3ccc(C4=NC5(CC5)C(=O)N4CC4CN(C(=O)C5CC5)C4)cc3F)cc2c1C [compound 417, 6-{[1-(Cyclopropylcarbonyl)azetidin-3-yl]methyl}-5-[4-(2,3-dimethyl-1-benzofuran-5-yl)-3-fluorophenyl]-4,6-diazaspiro[2.4]hept-4-en-7-one] | 62% | 5.25 µM
7 | Cn1ncc2ccc(-c3ccc(C4=NC5(CC5)C(=O)N4CC4CCN(C(=O)C5CC5)CC4)cc3)cc21 [compound 24, 6-{[1-(Cyclopropylcarbonyl)piperidin-4-yl]methyl}-5-[4-(1-methyl-1H-indazol-6-yl)phenyl]-4,6-diazaspiro[2.4]hept-4-en-7-one] | 76.4% | 1.86 µM
8 | Cc1cc2cc(-c3ccc(C4=NC5(CCN(C(=O)C6CC6)CC5)C(=O)N4C[C@@H]4CCN(C(=O)C5CC5)C4)cc3)ccc2o1 [compound 171, 8-(Cyclopropylcarbonyl)-3-{[(3R)-1-(cyclopropylcarbonyl)pyrrolidin-3-yl]methyl}-2-[4-(2-methyl-1-benzofuran-5-yl)phenyl]-1,3,8-triazaspiro[4.5]dec-1-en-4-one] | 107% | 0.214 µM
9 | O=C(C1CC1)N1CC[C@@H](CN2C(=O)C3(CCCC3)N=C2c2ccc(-c3ccnc4ccccc34)cc2)C1 [compound 22, 3-{[(3R)-1-(Cyclopropylcarbonyl)pyrrolidin-0 3-yl]methyl}-2-(4-quyinolin-4-ylphenyl)-1,3-diazaspiro[4.4]non-1-en-4-one] | 85% | 1.07 µM
10 | Cc1cc2cc(-c3ccc(C4=NC5(CCN(CCO)CC5)C(=O)N4C[C@@H]4CCN(C(=O)C5CC5)C4)cc3)ccc2o1 [compound 173, 3-{[(3R)-1-(Cyclopropylcarbonyl)pyrrolidin-3-yl]methyl}-8-(2-hydroxyethyl)-2-[4-(2-methyl-1-benzofuran-5-yl)phenyl]-1,3,8-triazaspiro[4.5]dec-1-en-4-one] | 97% | 0.38 µM
11 | O=C(C1CC1)N1CCC(CN2C(=O)C3(CC3)N=C2c2ccc(-c3ccncc3)cc2)CC1 [compound 32, 6-{[1-(Cyclopropylcarbonyl)piperidin-4-yl]methyl}-5-(4-pyridin-4-ylphenyl)-4,6-diazaspiro[2.4]hept-4-en-7-one] | 6.8% | > 10 µM

Other lines, results leading:

Row | inhibition at 10 µM | IC50 | Structure (SMILES)
12 | 25% | > 10 µM | Cc1cc(-c2cnc3c(c2)OCCN3C)ccc1C1=NC2(CCCC2)C(=O)N1C[C@@H]1CCN(C(=O)C2CC2)C1 [compound 822, (R)-3-((1-(cyclopropanecarbonyl)pyrrolidin-3-yl)methyl)-2-(2-methyl-4-(4-methyl-3,4-dihydro-2H-pyrido[3,2-b][1,4]oxazin-7-yl)phenyl)-1,3-diazaspiro[4.4]non-1-en-4-one]
13 | 62% | ~5.01 µM | O=C(c1nccs1)N1CC[C@@H](CN2C(=O)C3(CCOCC3)N=C2c2ccc(-c3ccc4cccnc4c3)cc2)C1 [compound 666, 2-(4-Quinolin-7-ylphenyl)-3-{[(3R)-1-(1,3-thiazol-2-ylcarbonyl)pyrrolidin-3-yl]methyl}-8-oxa-1,3-diazaspiro[4.5]dec-1-en-4-one]
14 | 2% | > 10 µM | O=C(C1CC1)N1CCC[C@H](CN2C(=O)C3(CC3)N=C2c2ccc(-c3ccc(-c4cccc(Cl)c4)cc3)cc2)C1 [compound 813, (S)-5-(3″-chloro-[1,1′:4′,1″-tertphenyl]-4-yl)-6-((1-(cyclopropanecarbonyl)piperidin-3-yl)methyl)-4,6-diazaspiro[2.4]hept-4-en-7-one]
15 | 31% | > 10 µM | CC(C)n1cc2cc(-c3ccc(C4=NC5(CC5)C(=O)N4CC4CN(C(=O)C5CC5)C4)cc3)ccc2n1 [compound 808, 6-((1-(cyclopropanecarbonyl)azetidin-3-yl)methyl)-5-(4-(2-isopropyl-2H-indazol-5-yl)phenyl)-4,6-diazaspiro[2.4]hept-4-en-7-one]
16 | 55% | 7.94 µM | CC(O)C(=O)N1CC(CN2C(=O)C3(CCOC3)N=C2c2ccc(-c3ccc4c(cnn4C)c3)cc2)C1 (stereo not shown) [compound 723, 3-{[1-(2-Hydroxypropanoyl)azetidin-3-yl]methyl}-2-[4-(1-methyl-1H-indazol-5-yl)phenyl]-7-oxa-1,3-diazaspiro[4.4]non-1-en-4-one]
17 | 67% | 3.89 µM | CC(O)C(=O)N1CC(CN2C(=O)C3(CCOC3)N=C2c2ccc(-c3ccc4occc4c3)cc2)C1 (stereo not shown) [compound 719, 2-[4-(1-Benzofuran-5-yl)phenyl]-3-{[1-(2-hydroxypropanoyl)azetidin-3-yl]methyl}-7-oxa-1,3-diazaspiro[4.4]non-1-en-4-one]
18 | 4% | > 10 µM | O=C(C1CC1)N1CCC[C@H](CN2C(=O)C3(CC3)N=C2c2ccc(-c3ccc4[nH]ncc4c3)cc2)C1 [compound 816, (S)-5-(4-(1H-indazol-5-yl)phenyl)-6-((1-(cyclopropanecarbonyl)piperidin-3-yl)methyl)-4,6-diazaspiro[2.4]hept-4-en-7-one]
19 | 12% | > 10 µM | O=C(N1CC(CN2C(=O)C3(CCOCC3)N=C2c2ccc(-c3ccc4cccnc4c3)cc2)C1)C(F)(F)F [compound 910, 2-(4-(quinolin-7-yl)phenyl)-3-((1-(2,2,2-trifluoroacetyl)azetidin-3-yl)methyl)-8-oxa-1,3-diazaspiro[4.5]dec-1-en-4-one]
20 | -14% | > 10 µM | O=C(c1nccs1)N1CC(CN2C(=O)C3(CCOCC3)N=C2c2ccc(-c3ccc4cccnc4c3)cc2)C1 [compound 947, 2-(4-(quinolin-7-yl)phenyl)-3-((1-(thiazole-2-carbonyl)azetidin-3-yl)methyl)-8-oxa-1,3-diazaspiro[4.5]dec-1-ene-4-one]
21 | -2% | > 10 µM | COC(=O)N1CC(CN2C(=O)C3(CCOC3)N=C2c2ccc(-c3ccc(-c4cnn(C)c4)cc3)cc2)C1 (stereo not shown) [compound 927, methyl 3-((2-(4′-(1-methyl-1H-pyrazol-4-yl)-[1,1′-biphenyl]-4-yl)-4-oxo-7-oxa-1,3-diazaspiro[4.4]non-1-en-3-yl)methyl)azetidine-1-carboxylate]
22 | 82% | 1.26 µM | O=C(C1CC1)N1CC(CN2C(=O)C3(CC3)N=C2c2ccc(-c3ccc4[nH]ncc4c3)c(F)c2)C1 [compound 451, 6-{[1-(Cyclopropylcarbonyl)azetidin-3-yl]methyl}-5-[3-fluoro-4-(1H-indazol-5-yl)phenyl]-4,6-diazaspiro[2.4]hept-4-en-7-one]
23 | -2% | > 10 µM | Cn1ncc2cc(-c3ccc(C4=NC5(CCOCC5)C(=O)N4CC4CN(C(=O)C(F)(F)F)C4)cc3)ccc21 [compound 935, 2-(4-(1-methyl-1H-indazol-5-yl)phenyl)-3-((1-(2,2,2-trifluoroacetyl)azetidin-3-yl)methyl)-8-oxa-1,3-diazaspiro[4.5]dec-1-en-4-one]
24 | 6% | > 10 µM | Cn1ncc2cc(-c3ccc(C4=NC5(CCOCC5)C(=O)N4CC4CN(S(C)(=O)=O)C4)cc3)ccc21 [compound 902, 2-(4-(1-methyl-1H-indazol-5-yl)phenyl)-3-((1-(methylsulfonyl)azetidin-3-yl)methyl)-8-oxa-1,3-diazaspiro[4.5]dec-1-en-4-one]
25 | 63% | ~5.37 µM | CS(=O)(=O)N1CCC2(CC1)N=C(c1ccc(-c3ccc4[nH]ncc4c3)cc1)N(CC1CN(C(=O)C3CC3)C1)C2=O [compound 763, 3-{[1-(Cyclopropylcarbonyl)azetidin-3-yl]methyl}-2-[4-(1H-indazol-5-yl)phenyl]-8-(methylsulfonyl)-1,3,8-triazaspiro[4.5]dec-1-en-4-one]
26 | -7% | > 10 µM | Cn1cc(-c2ccc(-c3ccc(C4=NC5(CCOCC5)C(=O)N4CC4CN(S(C)(=O)=O)C4)cc3)cc2)cn1 [compound 921, 2-(4′-(1-methyl-1H-pyrazol-4-yl)-[1,1′-biphenyl]-4-yl)-3-((1-(methylsulfonyl)azetidin-3-yl)methyl)-8-oxa-1,3-diazaspiro[4.5]dec-1-en-4-one]
